Assays:
Assay type in all cases: biochemical
PI3Kδ = PI3Kδ (Homo sapiens (Human), UniProt O00329); assay: TR-FRET enzymatic assay of PI3K isoforms (PI3Kδ); conditions: 2×Km ATP, 2 μM PIP2, incubated for 30 minutes at 25° C., read-out: δ IC50
Description: (§1) The compounds of formula (I) were characterized for their enzymatic activity against the PI3K isoforms. Certain compounds of the present application, including certain compounds of formula (II) and (III) were also characterized for their enzymatic activity against PI3K isoforms. The activities were measured using a time-resolved fluorescence resonance energy transfer (TR-FRET) assay.

PI3Kγ = PI3Kγ (Homo sapiens (Human), UniProt P48736); assay: TR-FRET enzymatic assay of PI3K isoforms (PI3Kγ); conditions: TR-FRET, 2×Km ATP, 2 μM PIP2, PI3Kγ at 2 nM, incubated for 30 minutes at 25° C.; read-out: γ IC50
Sequence of PI3Kγ (P48736 whole entry, canonical isoform): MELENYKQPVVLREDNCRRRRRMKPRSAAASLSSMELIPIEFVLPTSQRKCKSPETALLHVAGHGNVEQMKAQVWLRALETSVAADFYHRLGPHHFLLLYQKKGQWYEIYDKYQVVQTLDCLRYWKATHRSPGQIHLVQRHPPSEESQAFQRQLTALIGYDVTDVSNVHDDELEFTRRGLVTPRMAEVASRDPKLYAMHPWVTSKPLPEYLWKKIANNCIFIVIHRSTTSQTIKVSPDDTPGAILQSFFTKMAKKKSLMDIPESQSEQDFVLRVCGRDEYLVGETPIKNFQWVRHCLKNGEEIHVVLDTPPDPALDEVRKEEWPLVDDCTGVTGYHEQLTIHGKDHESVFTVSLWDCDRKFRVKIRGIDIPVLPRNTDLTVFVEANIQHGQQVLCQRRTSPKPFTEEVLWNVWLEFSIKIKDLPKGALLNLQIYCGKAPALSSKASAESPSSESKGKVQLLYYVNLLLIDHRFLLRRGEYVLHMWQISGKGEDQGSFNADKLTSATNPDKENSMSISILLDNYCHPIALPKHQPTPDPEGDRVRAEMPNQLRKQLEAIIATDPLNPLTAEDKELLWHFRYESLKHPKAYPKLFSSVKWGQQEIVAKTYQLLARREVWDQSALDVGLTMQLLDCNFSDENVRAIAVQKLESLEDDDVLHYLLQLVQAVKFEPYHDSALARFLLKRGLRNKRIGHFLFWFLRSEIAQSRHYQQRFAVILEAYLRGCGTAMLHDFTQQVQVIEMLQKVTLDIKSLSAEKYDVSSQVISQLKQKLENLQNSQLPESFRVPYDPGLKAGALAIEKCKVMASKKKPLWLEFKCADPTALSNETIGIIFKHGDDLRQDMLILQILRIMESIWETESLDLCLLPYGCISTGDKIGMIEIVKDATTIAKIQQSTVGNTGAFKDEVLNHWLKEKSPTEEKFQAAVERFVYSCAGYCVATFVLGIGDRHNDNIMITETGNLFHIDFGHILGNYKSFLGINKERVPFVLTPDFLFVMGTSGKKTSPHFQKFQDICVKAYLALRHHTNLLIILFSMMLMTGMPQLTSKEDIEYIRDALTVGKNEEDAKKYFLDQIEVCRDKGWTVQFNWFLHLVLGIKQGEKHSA
Sequence of PI3Kγ (Q8WYR1 whole entry partner, canonical isoform): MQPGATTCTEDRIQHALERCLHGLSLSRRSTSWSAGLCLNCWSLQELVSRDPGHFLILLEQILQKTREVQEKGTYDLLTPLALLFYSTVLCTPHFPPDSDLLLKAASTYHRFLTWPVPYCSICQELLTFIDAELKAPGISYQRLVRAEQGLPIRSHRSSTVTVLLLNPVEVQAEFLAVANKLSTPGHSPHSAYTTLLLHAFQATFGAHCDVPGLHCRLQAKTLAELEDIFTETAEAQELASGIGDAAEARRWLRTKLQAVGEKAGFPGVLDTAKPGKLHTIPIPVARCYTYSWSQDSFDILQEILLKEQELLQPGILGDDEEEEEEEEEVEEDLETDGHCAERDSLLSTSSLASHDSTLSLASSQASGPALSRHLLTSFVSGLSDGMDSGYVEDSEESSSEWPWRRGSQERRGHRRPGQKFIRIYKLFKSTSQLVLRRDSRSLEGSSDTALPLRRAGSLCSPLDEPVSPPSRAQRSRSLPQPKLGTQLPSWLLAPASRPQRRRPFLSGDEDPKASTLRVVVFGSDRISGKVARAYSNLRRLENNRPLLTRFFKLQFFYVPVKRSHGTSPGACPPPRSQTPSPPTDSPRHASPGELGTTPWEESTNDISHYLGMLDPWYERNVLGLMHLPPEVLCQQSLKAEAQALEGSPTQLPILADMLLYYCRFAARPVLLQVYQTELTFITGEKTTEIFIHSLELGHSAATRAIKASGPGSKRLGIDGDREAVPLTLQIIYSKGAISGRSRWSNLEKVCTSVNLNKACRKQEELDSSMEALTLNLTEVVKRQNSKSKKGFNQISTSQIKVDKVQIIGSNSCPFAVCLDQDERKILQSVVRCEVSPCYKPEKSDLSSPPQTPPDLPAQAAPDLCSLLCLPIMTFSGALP
Description: as §1

PI3Kβ = PI3Kβ (Homo sapiens (Human), UniProt P42338); assay: TR-FRET enzymatic assay of PI3K isoforms (PI3Kβ); conditions: TR-FRET, 2×Km ATP, 2 μM PIP2, incubated for 30 minutes at 25° C.; read-out: β IC50
Sequence of PI3Kβ (P42338 whole entry, canonical isoform): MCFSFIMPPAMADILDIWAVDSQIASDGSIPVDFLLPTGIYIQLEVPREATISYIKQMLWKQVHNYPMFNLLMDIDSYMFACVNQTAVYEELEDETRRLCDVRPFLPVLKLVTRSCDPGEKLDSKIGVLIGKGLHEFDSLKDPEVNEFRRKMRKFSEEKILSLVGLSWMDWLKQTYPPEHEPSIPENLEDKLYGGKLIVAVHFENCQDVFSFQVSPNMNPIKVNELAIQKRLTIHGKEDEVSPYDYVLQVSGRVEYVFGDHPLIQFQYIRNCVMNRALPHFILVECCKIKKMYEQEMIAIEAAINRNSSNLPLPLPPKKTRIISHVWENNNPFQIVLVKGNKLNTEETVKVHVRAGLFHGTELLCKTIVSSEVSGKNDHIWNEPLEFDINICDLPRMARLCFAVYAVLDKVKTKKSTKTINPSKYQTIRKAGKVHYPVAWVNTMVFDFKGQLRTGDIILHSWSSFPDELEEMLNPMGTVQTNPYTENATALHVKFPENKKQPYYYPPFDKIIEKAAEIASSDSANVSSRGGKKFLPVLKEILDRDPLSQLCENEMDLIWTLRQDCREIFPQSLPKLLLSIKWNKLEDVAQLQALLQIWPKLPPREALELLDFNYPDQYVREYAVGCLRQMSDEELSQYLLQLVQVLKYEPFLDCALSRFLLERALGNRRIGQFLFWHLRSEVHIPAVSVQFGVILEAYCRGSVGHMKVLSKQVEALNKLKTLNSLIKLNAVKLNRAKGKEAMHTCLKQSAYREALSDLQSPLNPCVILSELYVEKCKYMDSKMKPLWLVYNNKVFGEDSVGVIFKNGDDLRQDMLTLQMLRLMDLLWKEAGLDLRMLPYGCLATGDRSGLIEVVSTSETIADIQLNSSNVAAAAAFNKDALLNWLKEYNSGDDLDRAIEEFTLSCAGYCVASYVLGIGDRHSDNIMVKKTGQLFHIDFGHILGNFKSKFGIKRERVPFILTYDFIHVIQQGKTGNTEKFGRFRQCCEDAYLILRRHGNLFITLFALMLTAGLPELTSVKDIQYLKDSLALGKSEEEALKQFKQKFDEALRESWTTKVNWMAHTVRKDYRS
Sequence of PI3Kβ (P27986 whole entry partner, canonical isoform): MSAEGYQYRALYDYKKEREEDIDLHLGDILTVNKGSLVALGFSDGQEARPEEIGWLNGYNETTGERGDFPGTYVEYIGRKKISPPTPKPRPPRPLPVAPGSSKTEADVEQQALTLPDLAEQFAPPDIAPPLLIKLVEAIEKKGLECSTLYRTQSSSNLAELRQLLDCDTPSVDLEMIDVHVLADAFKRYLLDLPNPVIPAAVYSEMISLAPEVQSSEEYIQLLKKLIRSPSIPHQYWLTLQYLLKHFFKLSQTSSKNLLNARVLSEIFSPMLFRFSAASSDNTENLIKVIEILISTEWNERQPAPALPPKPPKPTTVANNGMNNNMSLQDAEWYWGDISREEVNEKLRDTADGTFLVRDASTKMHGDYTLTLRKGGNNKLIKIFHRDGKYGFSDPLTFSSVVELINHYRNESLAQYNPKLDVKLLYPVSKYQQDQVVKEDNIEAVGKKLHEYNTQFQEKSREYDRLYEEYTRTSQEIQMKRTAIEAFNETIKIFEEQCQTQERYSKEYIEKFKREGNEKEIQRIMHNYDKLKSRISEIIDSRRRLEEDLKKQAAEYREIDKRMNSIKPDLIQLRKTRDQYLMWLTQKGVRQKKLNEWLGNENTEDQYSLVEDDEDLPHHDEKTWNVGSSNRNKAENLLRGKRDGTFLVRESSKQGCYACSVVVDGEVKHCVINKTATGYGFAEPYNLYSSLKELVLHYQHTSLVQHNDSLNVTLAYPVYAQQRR
Description: as §1

Sequence of PI3Kδ (O00329 whole entry, canonical isoform): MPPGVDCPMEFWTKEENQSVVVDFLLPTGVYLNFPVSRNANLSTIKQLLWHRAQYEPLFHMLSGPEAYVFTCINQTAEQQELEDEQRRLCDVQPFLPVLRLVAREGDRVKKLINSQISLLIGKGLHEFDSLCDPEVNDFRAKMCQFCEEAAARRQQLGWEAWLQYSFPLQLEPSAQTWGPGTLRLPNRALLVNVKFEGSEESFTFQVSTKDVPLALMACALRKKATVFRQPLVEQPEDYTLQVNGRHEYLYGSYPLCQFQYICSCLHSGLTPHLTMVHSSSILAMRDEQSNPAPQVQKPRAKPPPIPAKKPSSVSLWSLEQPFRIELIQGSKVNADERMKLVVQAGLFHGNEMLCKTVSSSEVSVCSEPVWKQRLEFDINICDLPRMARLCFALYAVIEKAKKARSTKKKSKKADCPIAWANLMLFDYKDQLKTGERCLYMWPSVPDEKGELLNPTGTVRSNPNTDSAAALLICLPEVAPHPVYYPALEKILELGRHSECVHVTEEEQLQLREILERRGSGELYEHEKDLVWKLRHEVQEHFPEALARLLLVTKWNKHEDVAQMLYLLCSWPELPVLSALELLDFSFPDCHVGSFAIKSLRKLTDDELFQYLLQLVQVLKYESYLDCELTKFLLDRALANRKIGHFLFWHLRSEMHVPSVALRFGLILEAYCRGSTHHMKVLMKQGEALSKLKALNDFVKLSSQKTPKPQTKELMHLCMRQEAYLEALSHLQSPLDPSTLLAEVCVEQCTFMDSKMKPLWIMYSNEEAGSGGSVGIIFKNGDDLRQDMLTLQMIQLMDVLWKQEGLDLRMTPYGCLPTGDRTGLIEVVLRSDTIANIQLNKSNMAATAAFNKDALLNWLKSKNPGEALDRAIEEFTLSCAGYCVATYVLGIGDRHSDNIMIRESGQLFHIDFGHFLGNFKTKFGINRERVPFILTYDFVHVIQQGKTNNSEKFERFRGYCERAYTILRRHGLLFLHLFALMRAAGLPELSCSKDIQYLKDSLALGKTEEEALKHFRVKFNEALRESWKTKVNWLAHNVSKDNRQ
Sequence of PI3Kδ (P27986 whole entry partner, canonical isoform): as the sequence (P27986 whole entry partner, canonical isoform) above

| Structure (SMILES) | IC50 (PI3Kδ) [nM] | IC50 (PI3Kγ) [nM] | IC50 (PI3Kβ) [nM] |
| --- | --- | --- | --- |
| COCCCNC(=O)Nc1cccc(-n2c([C@H](C)Nc3ncnc(N)c3C#N)nc3cccc(Cl)c3c2=O)c1 [Compound 134, (S)-1-(3-(2-(1-((6-amino-5-cyanopyrimidin-4-yl)amino)ethyl)-5-chloro-4-oxoquinazolin-3(4H)-yl)phenyl)-3-(3-methoxypropyl)urea] | 10 | 6000 | 5 |
| COCCCNC(=O)Nc1cccc(-n2c([C@H](C)Nc3ncnc4[nH]cnc34)nc3cccc(Cl)c3c2=O)c1 [Compound 135, (S)-1-(3-(2-(1-((9H-purin-6-yl)amino)ethyl)-5-chloro-4-oxoquinazolin-3(4H)-yl)phenyl)-3-(3-methoxypropyl)urea] | 35 | 3500 | 16 |
| CCNC(=O)Nc1cccc(-n2c([C@H](C)Nc3ncnc(N)c3C(=O)O)nc3cccc(Cl)c3c2=O)c1 [Compound 136, (S)-4-amino-6-((1-(5-chloro-3-(3-(3-ethylureido)phenyl)-4-oxo-3,4-dihydroquinazolin-2-yl)ethyl)amino)pyrimidine-5-carboxylic acid] | 610 | > 10000 | 1800 |
| C[C@H](Nc1ncnc(N)c1C#N)c1nc2cccc(Cl)c2c(=O)n1-c1cccc(NC(=O)NCCC(=O)O)c1 [Compound 137, (S)-3-(3-(3-(2-(1-((6-amino-5-cyanopyrimidin-4-yl)amino)ethyl)-5-chloro-4-oxoquinazolin-3(4H)-yl)phenyl)ureido)propanoic acid] | 12 | 7600 | 33 |
| C[C@H](Nc1ncnc(N)c1C#N)c1nc2cccc(Cl)c2c(=O)n1-c1cccc(NC(=O)NC(C)(C)CO)c1 [Compound 138, (S)-1-(3-(2-(1-((6-amino-5-cyanopyrimidin-4-yl)amino)ethyl)-5-chloro-4-oxoquinazolin-3(4H)-yl)phenyl)-3-(1-hydroxy-2-methylpropan-2-yl)urea] | 7 | 5200 | 4 |
| C[C@H](Nc1ncnc(N)c1C#N)c1nc2cccc(Cl)c2c(=O)n1-c1cccc(NC(=O)NC(C)(C)C(=O)O)c1 [Compound 139, (S)-2-(3-(3-(2-(1-((6-amino-5-cyanopyrimidin-4-yl)amino)ethyl)-5-chloro-4-oxoquinazolin-3(4H)-yl)phenyl)ureido)-2-methylpropanoic acid] | 13 | 8100 | 30 |
| C[C@H](Nc1ncnc(N)c1C#N)c1nc2cccc(Cl)c2c(=O)n1-c1cccc(NC(=O)NC(C)(C)CCO)c1 [Compound 140, (S)-1-(3-(2-(1-((6-amino-5-cyanopyrimidin-4-yl)amino)ethyl)-5-chloro-4-oxoquinazolin-3(4H)-yl)phenyl)-3-(4-hydroxy-2-methylbutan-2-yl)urea] | 5 | 5100 | 6 |
| C[C@H](Nc1ncnc(N)c1C#N)c1nc2cccc(Cl)c2c(=O)n1-c1cccc(NC(=O)NCC(C)(C)CO)c1 [Compound 141, (S)-1-(3-(2-(1-((6-amino-5-cyanopyrimidin-4-yl)amino)ethyl)-5-chloro-4-oxoquinazolin-3(4H)-yl)phenyl)-3-(3-hydroxy-2,2-dimethylpropyl)urea] | 6 | 1600 | 6 |
| C[C@H](Nc1ncnc(N)c1C#N)c1nc2cccc(Cl)c2c(=O)n1-c1cccc(NC(=O)NCCC(C)(C)O)c1 [Compound 142, (S)-1-(3-(2-(1-((6-amino-5-cyanopyrimidin-4-yl)amino)ethyl)-5-chloro-4-oxoquinazolin-3(4H)-yl)phenyl)-3-(3-hydroxy-3-methylbutyl)urea] | 6 | 7100 | 12 |
| C[C@H](Nc1ncnc(N)c1C#N)c1nc2cccc(Cl)c2c(=O)n1-c1cccc(NC(=O)Nc2ccccc2OCCO)c1 [Compound 143, (S)-1-(3-(2-(1-((6-amino-5-cyanopyrimidin-4-yl)amino)ethyl)-5-chloro-4-oxoquinazolin-3(4H)-yl)phenyl)-3-(2-(2-hydroxyethoxy)phenyl)urea] | 5 | 1500 | 7 |
| C[C@H](Nc1ncnc(N)c1C#N)c1nc2cccc(Cl)c2c(=O)n1-c1cccc(NC(=O)Nc2ccccc2S(C)(=O)=O)c1 [Compound 144, (S)-1-(3-(2-(1-((6-amino-5-cyanopyrimidin-4-yl)amino)ethyl)-5-chloro-4-oxoquinazolin-3(4H)-yl)phenyl)-3-(2-(methylsulfonyl)phenyl)urea] | 4 | 6500 | 17 |
| C[C@H](Oc1ncnc2scnc12)c1nc2cccc(Cl)c2c(=O)n1-c1cccc(NC(=O)NC2CCCC2)c1 [Compound 146, (S)-1-(3-(5-chloro-4-oxo-2-(1-(thiazolo[5,4-d]pyrimidin-7-yloxy)ethyl)quinazolin-3(4H)-yl)phenyl)-3-cyclopentylurea] | 6 | 2200 | 57 |
| C[C@H](Oc1ncnc2scnc12)c1nc2cccc(Cl)c2c(=O)n1-c1cccc(NC(=O)NC2(C(F)(F)F)CC2)c1 [Compound 147, (S)-1-(3-(5-chloro-4-oxo-2-(1-(thiazolo[5,4-d]pyrimidin-7-yloxy)ethyl)quinazolin-3(4H)-yl)phenyl)-3-(1-(trifluoromethyl)cyclopropyl)urea] | 12 | 2300 | 16 |
| C[C@H](Oc1ncnc2scnc12)c1nc2cccc(Cl)c2c(=O)n1-c1cccc(NC(=O)NCC(F)F)c1 [Compound 148, (S)-1-(3-(5-chloro-4-oxo-2-(1-(thiazolo[5,4-d]pyrimidin-7-yloxy)ethyl)quinazolin-3(4H)-yl)phenyl)-3-(2,2-difluoroethyl)urea] | 5 | 1800 | 8 |
| C[C@H](Oc1ncnc2scnc12)c1nc2cccc(Cl)c2c(=O)n1-c1cccc(NC(=O)Nc2cc(C(F)(F)F)no2)c1 [Compound 150, (S)-1-(3-(5-chloro-4-oxo-2-(1-(thiazolo[5,4-d]pyrimidin-7-yloxy)ethyl)quinazolin-3(4H)-yl)phenyl)-3-(3-(trifluoromethyl)isoxazol-5-yl)urea] | 5 | 840 | 47 |
| CCNC(=O)Nc1cccc(-n2c([C@H](C)Oc3ncnc4scnc34)nc3cccc(Cl)c3c2=O)c1 [Compound 151, (S)-1-(3-(5-chloro-4-oxo-2-(1-(thiazolo[5,4-d]pyrimidin-7-yloxy)ethyl)quinazolin-3(4H)-yl)phenyl)-3-ethylurea] | 4 | 1300 | 20 |
| C[C@H](Oc1ncnc2scnc12)c1nc2cccc(Cl)c2c(=O)n1-c1cccc(NC(=O)NCC(F)(F)C(F)(F)F)c1 [Compound 152, (S)-1-(3-(5-chloro-4-oxo-2-(1-(thiazolo[5,4-d]pyrimidin-7-yloxy)ethyl)quinazolin-3(4H)-yl)phenyl)-3-(2,2,3,3,3-pentafluoropropyl)urea] | 10 | 2500 | 17 |
| CONC(=O)Nc1cccc(-n2c([C@H](C)Oc3ncnc4scnc34)nc3cccc(Cl)c3c2=O)c1 [Compound 153, (S)-1-(3-(5-chloro-4-oxo-2-(1-(thiazolo[5,4-d]pyrimidin-7-yloxy)ethyl)quinazolin-3(4H)-yl)phenyl)-3-methoxyurea] | 4 | 1600 | 48 |

From patent US10221197B2, “Phosphatidylinositol 3-kinase inhibitors” (Gilead Sciences, Inc., priority 2014, dated 2019)
